# In PMC11514582, “Leveraging the Aggregated Protein Dye YAT2150 for Malaria Chemotherapy” (Pharmaceutics, 2024):
# Several values for one entry are separate records, joined by “and”; a condition that tells them apart may be missing. Equal entries are not always repeated.
# Columns and labels:
# [1] = Cytotoxicity assay in HUVEC (resazurin); type: cell-based; settings: human, read-out: HUVEC inhibition (CC50)
# [2] = Cytotoxicity assay in HEP-G2 (MTT); type: cell-based; settings: human, Hep-G2 cells, read-out: HEP-G2 inhibition (CC50)
# Protocol: THP-1 human acute monocytic leukemia cells and NCI-H460 human lung carcinoma cells were grown in RPMI supplemented with 10% FBS. Hep-G2 human hepatocellular carcinoma cells were cultured in Eagle’s minimum essential medium (EMEM) supplemented with 10% FBS. A2780 human ovarian carcinoma cells were grown in RPMI supplemented with 10% FBS and 2 mM L-glutamine. MCF-7 human breast adenocarcinoma cells were cultured in EMEM containing 2 mM L-glutamine and Earle’s balanced salt solution adjusted with 1.5 g/L sodium bicarbonate, 0.1 mM non-essential amino acids, and 1 mM sodium pyruvate and supplemented with 10% FBS. […] Except for Caco-2 and HUVEC, inhibition of cell growth was evaluated using a protocol based on monitoring the transformation into formazan of the tetrazolium salt of MTT (3-(4,5-dimethylthiazol-2-yl)-2,5-diphenyltretrazolium bromide) by metabolically active cells. […] After 96 further h of incubation in the same conditions, 10 µL of a 5 mg/mL MTT solution in PBS was added to each sample, and the incubation was resumed for another 4 h. […] The absorbance measurement range was framed between one sample containing 4000 cells in plain growth medium (to determine the stable cell concentration) and another sample containing an equal cell number in growth medium supplemented with growth factors (to measure the maximum cell growth at 96 h).
# Caco-2 cells = experiment: Influx and efflux assays in Caco-2 cells with transporter/endocytosis inhibitors; type: cell-based, human; settings: 5 µM, FBS-free medium
# Excerpt: The panel of influx and efflux membrane transporters expressed in Caco-2 cells has been previously characterized and, to a great extent, mimics the one described in human intestine. Based upon this information and the established knowledge of the physiology of intestinal transporters, we considered the following as possible YAT2150 influx transporters: Organic Cation Transporters (OCTs), Peptide Transporter 1 (PEPT1), and Organic Anion Transporter Polypeptide 2B1 (OATP2B1). […]
# Caco-2 cells were grown in monolayer on a solid support at 37 °C in a humidified atmosphere with 5% CO2 and maintained in DMEM supplemented with 10% FBS, 2 mM L-glutamine, 1% MEM non-essential amino acids, 20 U/mL penicillin, and 20 µg/mL streptomycin (Life Technologies, Carlsbad, CA, USA). To identify YAT2150 influx and efflux mechanisms in Caco-2 cells, YAT2150 intracellular accumulation was determined by measuring its fluorescent emission at 610 nm under various experimental conditions as follows. A total of 50,000 cells/well were seeded in MW24 plates, and 24 h after seeding, YAT2150 influx and efflux were determined either in the presence or absence of FBS. […] Then, cells were washed with PBS, and intracellular YAT2150 was determined (see below). […] In parallel, emitted fluorescence was measured in an iBright Imaging System and quantified by iBright Analysis Software 5.3.0 (Thermo Fisher Scientific, Inc.). […]
# LYWIYY peptide = experiment: Transmission electron microscopy of peptide aggregation; type: biochemical, Plasmodium falciparum; settings: 100 nM, 25 µM peptide, 24 h after disaggregation
# Protocol: To disaggregate peptides before the assay, 1 mg of lyophilized peptide was dissolved in 1 mL of trifluoroacetic acid (TFA), which, after thoroughly mixing, was evaporated under a N2 stream, and 500 µL of 1,1,1,3,3,3-hexafluoro-2-propanol (HFIP; Honeywell Fluka-Thermo Fisher Scientific, Inc.) were added, mixed well, and evaporated as mentioned before (repeated twice to fully remove TFA). Then, 500 µL of HFIP was added, and the solution was divided into aliquots and placed in a desiccator overnight. Afterward, 500 µL of PBS was added to each aliquot to have a final peptide concentration of 25 µM, and, to ensure minimal aggregation (t0), the samples were sonicated for 10 min in a water bath sonicator (FB15053 ultrasonic bath, Thermo Fisher Scientific, Inc.). To study the effect of YAT2150 on peptide aggregation, the compound was added at a final concentration of 100 nM and incubated for 24 h at 37 °C under stirring at 1400 rpm (t24). For disaggregation analysis, a 25 µM peptide aliquot was first pre-aggregated for 24 h (37 °C, 1400 rpm); after this time, YAT2150 was added at a final concentration of 100 nM, and the samples were incubated for an additional 24 h in the same conditions (t48). Control samples in the absence of YAT2150 were included. A 5-μL drop of each sample was deposited onto a carbon-coated copper grid (Ted Pella, Redding, CA, USA) for 1 h. […]
# CYP3A4 = CYP3A4 (Homo sapiens, UniProt P08684); experiment: in vitro; settings: microsomes
# Sequence of CYP3A4 (P08684 whole entry): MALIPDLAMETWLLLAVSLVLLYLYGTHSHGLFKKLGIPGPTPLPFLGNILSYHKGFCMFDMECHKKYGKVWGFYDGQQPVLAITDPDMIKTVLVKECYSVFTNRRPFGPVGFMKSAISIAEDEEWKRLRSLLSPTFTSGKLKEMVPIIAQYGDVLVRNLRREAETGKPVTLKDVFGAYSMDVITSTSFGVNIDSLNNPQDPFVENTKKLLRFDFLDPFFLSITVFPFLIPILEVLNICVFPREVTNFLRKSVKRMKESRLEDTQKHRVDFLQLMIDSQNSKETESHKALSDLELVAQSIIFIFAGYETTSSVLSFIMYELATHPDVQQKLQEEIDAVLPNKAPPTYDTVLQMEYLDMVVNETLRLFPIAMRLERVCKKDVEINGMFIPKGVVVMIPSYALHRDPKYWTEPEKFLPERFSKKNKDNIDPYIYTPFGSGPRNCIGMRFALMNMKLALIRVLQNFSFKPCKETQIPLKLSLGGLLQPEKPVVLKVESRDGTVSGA
# [3] = cited from earlier work
compound,measurement,setting,value
CCN(CC)c1ccc(/C=C/c2cc[n+](CCCCCCCCCC[n+]3ccc(/C=C/c4ccc(N(CC)CC)cc4)c(C)c3)cc2C)cc1 [YAT2150],CC50 at 48 h,[1],14.8 ± 3.8 µM
same,CC50 at 96 h,[2],2.54 ± 0.08 µM
same,efflux route in Caco-2 cells,Caco-2 cells; with efflux inhibitors,OSTα/β transporters mediated YAT2150 efflux
same,influx route in Caco-2 cells,Caco-2 cells; with influx inhibitors,mainly internalized by endocytosis and also through the OATP2B1 transporter
same,effect on LYWIYY aggregation (TEM),LYWIYY peptide,significantly abolished after 24 h the formation of LYWIYY amyloid fibrils
same,"inhibition at 30 min, 10 µM",CYP3A4,35 ± 3%
same,Transport through Caco-2 AB (Papp),[3]; apical to basolateral,207.6 ± 11.6 ^7 nm/s
same,Transport through Caco-2 Efflux ratio,[3],0.5 and 0.48 ± 0.03 ^7
